Experimental data from paper PMC11665553, “12-Lipoxygenase inhibition delays onset of autoimmune diabetes in human gene replacement mice” (JCI Insight, 2024).
Where “and” joins values, the source holds several entries; their conditions need not be identical. Equal entries are not always repeated.

Tested on: NOD.hALOX12 mice
Assay: Flow cytometry of pancreatic lymph nodes and spleen of NOD.hALOX12 mice
Assay type: in vivo, mouse
Set-up: FoxP3 / CD4 / IFNg / IL-17a: unit not given here
Settings: for CD4 / FoxP3 / IFNg / IL-17a: flow cytometry, individual animals, listed as VLX
Experimental: Spleen and pLNs were harvested, homogenized, and passed through a 70 μm strainer to obtain a single-cell suspension. Cell pellets were resuspended in red blood cell (RBC) lysing solution to remove red blood cells. […] The following surface markers were used — CD4-FITC (BioLegend, 100510; 1:100), CD8–PerCP-Cy5.5 (BioLegend, 100734; 1:100), and CD19-AF700 (BioLegend, 152414; 1:100). Following incubation of surface antibodies, cells were washed with stain buffer and then permeabilized using fix/perm buffer (BD Biosciences, 554722) before intracellular staining. The following intracellular antibodies from BD Biosciences were used: FoxP3-AF647 (560401; 1:100), IFN-γ–PE (554412; 1:50), and IL-17a–APCCY7 (560821; 1:50). Cells were analyzed on the Attune NxT Flow Cytometer (Thermo Fisher Scientific). Data were analyzed by FlowJo software (BD Biosciences).

[1] = female NOD.hALOX12 mice, 30 mg/kg p.o., 4 weeks

With `COc1cccc(CNc2ccc(S(=O)(=O)Nc3nc4ccccc4s3)cc2)c1O` [VLX-1005] the “CD4+Foxp3+ regulatory T cells in pancreatic lymph nodes” value [1] was “increase”, the Tregs in spleen [1] was “no changes” and the CD4 (sheet SFig 2C) was 65.7 and 58.8 and 61.4 and 58 and 54.2. The FoxP3 (sheet SFig 2C) was 4.31 and 7.46 and 5.24 and 7.28 and 5.6, the IFNg (sheet SFig 2C) was 0.037 and 0.092 and 0.047 and 0.058 and 0.044 and the IL-17a (sheet SFig 2C) was 2.96 and 5.74 and 6.17 and 6.96 and 7.02. The CD4 (sheet SFig 2D) was 46.2 and 45.1 and 46.1 and 45.5 and 43.7, the FoxP3 (sheet SFig 2D) was 8.7 and 7.15 and 4.07 and 12.1 and 9.49 and the IFNg (sheet SFig 2D) was 0.36 and 0.33 and 0.39 and 0.29 and 0.4. It also gave an IL-17a (sheet SFig 2D) of 3.2.
